Data taken from US9107876B2, “Surface anesthetic agent” (YAMAGUCHI UNIVERSITY, priority 2009, dated 2015).

System: buccal mucosal membrane
Experiment: Needle stab after applying the surface anesthetic agent to the buccal mucosal membrane: time for the painless effect to be exerted
Assay type: in vivo
Conditions: 200 mg applied with a cotton swab to the buccal mucosal membrane, then a needle stabbed
Procedure: Various surface anesthetic agents mentioned above were applied to the buccal mucosal membrane, and then a needle was stabbed, and the time for the painless effect to be exerted and the time for the pain to start again were measured.
(1) As a sample of tetracaine alone, 200 mg (12 mg tetracaine) COPALON was attached to a cotton swab, and applied to the buccal mucosal membrane.
(2) As a sample of lidocaine alone, 200 mg Xylocaine jelly (4 mg lidocaine) was attached to a cotton swab, and applied to the buccal mucosal membrane.
(3) As a sample of a combination use of tetracaine and lidocaine, various mixtures of tetracaine and lidocaine in 92:8, 82:18, 67:33 and 43:57 mass ratios were prepared by varying the blending ratio of COPALON and Xylocaine jelly to 80:20, 60:40, 40:60 and 20:80. 200 mg of each of the prepared mixtures was attached to a cotton swab, and applied to the buccal mucosal membrane. […]
Various surface anesthetic agents containing tetracaine and/or lidocaine mentioned above were applied to the buccal mucosal membrane, and then a needle was stabbed, and the time for the painless effect to be exerted and the time for the pain to start again were measured.

CCN(CC)CC(=O)Nc1c(C)cccc1C [Comparative Example 1-2, 2-(diethylamino)-N-(2,6-dimethylphenyl) acetamide]
time for the painless effect to be exerted after the application: 5 min
